Laboratory results reported in BindingDB's records for doi:10.1021/acsmedchemlett.0c00369 (Shenyang Pharmaceutical University, 2021).
pIC50: −log10 of the molar value.

Molecular target: Histone deacetylase 2 (Homo sapiens, UniProt Q92769)
Test: Inhibition of recombinant full length C-terminal FLAG-tagged human HDAC2 expressed in baculovirus infected Sf9 cells using Boc-Lys(Ac)-AMC as substrate preincubated for 15 mins followed by substrate addition and measured after 60 mins by fluorescence based assay

Sequence of Histone deacetylase 2 (Q92769 whole entry): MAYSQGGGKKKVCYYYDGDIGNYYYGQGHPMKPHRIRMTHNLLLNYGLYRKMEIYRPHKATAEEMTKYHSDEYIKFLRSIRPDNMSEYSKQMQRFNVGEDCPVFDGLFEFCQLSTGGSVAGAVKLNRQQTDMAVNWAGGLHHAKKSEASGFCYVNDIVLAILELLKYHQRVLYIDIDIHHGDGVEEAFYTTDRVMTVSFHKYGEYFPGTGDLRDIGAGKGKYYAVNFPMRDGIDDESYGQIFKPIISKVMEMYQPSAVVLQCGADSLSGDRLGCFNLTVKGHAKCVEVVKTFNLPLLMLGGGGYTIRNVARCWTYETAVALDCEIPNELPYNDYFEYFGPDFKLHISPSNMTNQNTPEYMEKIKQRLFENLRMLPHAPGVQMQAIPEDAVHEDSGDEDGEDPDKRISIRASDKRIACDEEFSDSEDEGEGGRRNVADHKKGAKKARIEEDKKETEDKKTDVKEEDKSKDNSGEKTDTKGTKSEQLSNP

pIC50: 7.48
SMILES: O=NC(Cc1ccc(O)c(Br)c1)C(=O)NCCSSCCNC(=O)C(Cc1ccc(O)c(Br)c1)N=O (stereo unspecified) [3-(3-bromo-4-hydroxy-phenyl)-N-[2-(2-{3-(3-bromo-4-hydroxy-phenyl)-2-[hydroxyimino]-propionylamino}-ethyldisulfanyl)-ethyl]-2-[hydroxyimino]-propionamide]
